Structure (SMILES)	melting point
Nc1c(Cl)cc(C(=O)OCC2CCN(CCCn3nc(Cl)ccc3=O)CC2)c2c1CCO2	137 °C
O=C(O)CCc1ccc2c(c1)Cc1ccccc1CO2	181 to 183 °C
COC(=O)[C@H](Cc1c[nH]c2ccccc12)NC(=O)CCC(=O)[C@H](Cc1ccccc1)NC(=O)OC(C)(C)C	54 to 57 °C
COc1cc(C(=O)Nc2ccc3ccc(Cl)nc3n2)cc(OC)c1OC	210 °C
CC(Oc1c(C(=O)O)cc(Cl)cc1[N+](=O)[O-])C(=O)O (stereo not given)	190 °C
CC(=O)NC[C@H]1CN(c2ccc3c(c2)CCSCC3=O)C(=O)O1	232 to 233 °C
CC(=O)c1cccc(-c2ccc(Oc3ncccc3C(=O)O)cc2)c1	188 °C
Cc1ccc(OC(=O)c2cc3cc(S(=O)(=O)N(C)C)c(Cl)c(Cl)c3o2)cc1	176 to 177 °C
Cc1nccc2[nH]c(=O)c(N)cc12	283 to 285 °C
CC1C(=O)Oc2c(Oc3ccccc3F)cccc21 (stereo not given)	70 to 71.5 °C
O=[N+]([O-])c1cc(Sc2ccc(Cl)cc2)[nH]c1-c1ccc(Cl)cc1	195 to 197 °C
COc1cc(C(=O)O)c2oc(-c3ccc(OC)c(F)c3)cc2c1	254 to 256 °C
Cc1ccc(S(=O)(=O)N2[C@@H](C(=O)O)CC[C@H]2c2ccc(F)cc2)cc1 (racemic)	166 °C
CSC1=Nc2ccncc2S(=O)(=O)N1C	135 to 138 °C
c1ccc(NC(Nc2ccccc2)Nc2ccccc2)cc1	138 to 139 °C
Cc1c[nH]c(-c2ccc(OCC(O)CNC(C)(C)C)cc2)n1 (stereo not given)	202 to 203 °C
CCOC(=O)c1ccc(-c2[nH]nc3c2C(=O)c2c(NC(N)=O)cccc2-3)s1	> 280 °C
O=C1CCOC(N2CCN=C(c3ccccc3Cl)c3cc(Cl)ccc32)=N1	124 to 135 °C
Cc1nn(C)c2nc(N)nc(N)c2c1=O	> 275 °C
CCCCc1nc2c(N)nc3ccccc3c2n1CCNC(=O)CCCCC1SCC2NC(=N)NC21 (stereo not given)	95 to 96 °C

Structure (SMILES)	melting point
O=C(NC1CCC(OCc2ccccc2)CC1)NC12CC3CC(CC(C3)C1)C2 (stereo not given)	181 °C
CN1C(=O)C(Cc2ccccc2)(c2ccccc2OCCCCBr)c2ccccc21 (stereo not given)	174 to 175 °C
CCc1cccc2c1[nH]c1c2ccc2c(C=O)c[nH]c21	> 250 °C
CSC1=NC(=O)C(=Cc2nc(C(C)(C)C)c(O)c(C(C)(C)C)n2)S1	205 to 208 °C
C=CCN(C(=O)OCc1ccccc1)c1cc(F)c(-c2ccncc2)c(F)c1	82 to 83 °C
O=c1[nH][nH]c(C(F)(F)F)c1Cc1ccc2c(c1)OCO2	196 to 197 °C
CCCCc1nn(-c2ccccc2C(F)(F)F)c(=O)n1Cc1ccc(-c2ccccc2S(N)(=O)=O)cc1	74 to 76 °C
CCOC(=O)c1cn2c(n1)SCC2	107 to 109 °C
CC(C)(C)C(F)(F)c1ccc(C[C@@H](NC(=O)c2cccc3c(Cl)cccc23)[C@@H](O)c2cccc(Cl)c2)cc1 (racemic)	99 to 101 °C
CCN(CC)C(=O)c1cc[nH]c1C	120 to 121 °C
Cc1ccc(N=C=C2C=CC=CN2)c(C)c1[N+](=O)[O-]	114 to 116 °C
CN(C)CCCN1C(=O)Nc2ccccc2C1C1CCCCC1 (stereo not given)	124 to 125 °C
COC(=O)N[C@@H](Cc1ccccc1)[C@H](O)CCl	163 to 164 °C
O=C(NCC1CC1)N1CC(Oc2cccc(C(F)(F)F)c2)C1	132 to 133 °C
CCN(CC)c1nc2[nH]c3c(c(=O)n2n1)SCCC3	308 to 310 °C
CC(C)n1nc(-c2cnc(N)nc2-c2ccc(Cl)cc2)ccc1=O	195 °C
COC(=O)C(=O)c1c[nH]c2c1ccc1c3ccccc3[nH]c12	> 290 °C
O=Cc1ccc(OCCN2OCc3ccccc3C2=O)cc1	102 °C
CC(C)(O)Cn1cnc2c1c1ccccc1n1nnnc21	246 to 247 °C
CC(C)(C)NC(=O)C1CCC2C3CC=C4C=C(C#N)CCC4(C)C3CCC12C (stereo not given)	198 to 200 °C

Source: a melting point compilation (Tetko et al.; mined from patent text by program, amines drawn as free bases though some values may be those of a salt)
